Results: ChEMBL document CHEMBL1201862, “PubChem BioAssay data set” (2004)
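Briefly, cells in 96-well plates were exposed to five compound concentrations for 48 h, and endpoints were estimated by linear interpolation. GI50 is the concentration that inhibits growth by half.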 Activity calls are given as the source filed them. No stated cut-off is given here; in the data, active = GI50 up to about 1.1 µM and inactive = higher.

Key:
Assay in all cases: growth of human tumour cells (NCI), 48 h
[1] = system: 786-0
[2] = system: A498
[3] = system: A549
[4] = system: ACHN
[5] = system: CAKI-1
[6] = system: CCRF-CEM
[7] = system: COLO 205
[8] = system: DLD-1
[9] = system: DMS-114
[10] = system: DMS-273
[11] = system: EKVX
[12] = system: HCC 2998
[13] = system: HCT-116
[14] = system: HCT-15
[15] = system: HL-60
[16] = system: HOP-18
[17] = system: HOP-62
[18] = system: HOP-92
[19] = system: HT-29
[20] = system: IGROV-1
[21] = system: K562
[22] = system: KM-20L2
[23] = system: KM12
[24] = system: LOX IMVI
[25] = system: LXFL 529
[26] = system: M14
[27] = system: M19-MEL
[28] = system: MOLT-4
[29] = system: Malme-3M
[30] = system: NCI-H226
[31] = system: NCI-H23
[32] = system: NCI-H460
[33] = system: NCI-H522
[34] = system: OVCAR-3
[35] = system: OVCAR-4
[36] = system: OVCAR-5
[37] = system: OVCAR-8
[38] = system: RPMI-8226
[39] = system: RXF 393
[40] = system: RXF 631
[41] = system: SF-268
[42] = system: SF-295
[43] = system: SF-539
[44] = system: SK-MEL-28
[45] = system: SK-MEL-2
[46] = system: SK-MEL-5
[47] = system: SK-OV-3
[48] = system: SN12C
[49] = system: SNB-19
[50] = system: SNB-75
[51] = system: SNB-78
[52] = system: SR
[53] = system: SW-620
[54] = system: TK-10
[55] = system: U-251
[56] = system: UACC-257
[57] = system: UACC-62
[58] = system: UO-31
[59] = system: XF498

Measured: GI50

CCOC(=O)/C(ON)=C(/CC/C(C(=O)OC)=C(\ON)C(=O)OCC)C(=O)OC
> 100 µM: [14]
inactive: [1] > 100 µM | [2] > 100 µM | [3] > 100 µM | [4] > 100 µM | [5] > 100 µM | [6] > 100 µM | [7] > 100 µM | [8] > 100 µM | [9] > 100 µM | [10] > 100 µM | [11] > 100 µM | [12] > 100 µM | [13] > 100 µM | [15] > 100 µM | [16] > 100 µM | [17] > 100 µM | [18] > 100 µM | [19] > 100 µM | [20] > 100 µM | [21] > 100 µM | [22] > 100 µM | [23] > 100 µM | [24] > 100 µM | [25] > 100 µM | [26] > 100 µM | [27] > 100 µM | [28] > 100 µM | [29] > 100 µM | [30] > 100 µM | [31] > 100 µM | [32] > 100 µM | [33] > 100 µM | [34] > 100 µM | [35] > 100 µM | [36] > 100 µM | [37] > 100 µM | [38] > 100 µM | [39] > 100 µM | [40] > 100 µM | [41] > 100 µM | [42] > 100 µM | [43] > 100 µM | [44] > 100 µM | [45] > 100 µM | [46] > 100 µM | [47] > 100 µM | [48] > 100 µM | [49] > 100 µM | [50] > 100 µM | [51] > 100 µM | [52] > 100 µM | [53] > 100 µM | [54] > 100 µM | [55] > 100 µM | [56] > 100 µM | [57] > 100 µM | [58] > 100 µM | [59] > 100 µM

ClC/C=C/COC1CCCCO1 (centres undefined)
> 100 µM: [14]
inactive: [1] > 100 µM | [2] > 100 µM | [3] > 100 µM | [4] 60.5 µM | [5] 89.9 µM | [6] 36.8 µM | [7] 94.6 µM | [8] > 100 µM | [9] 33.2 µM | [10] 62.2 µM | [11] > 100 µM | [12] > 100 µM | [13] > 100 µM | [15] 20.6 µM | [16] > 100 µM | [17] > 100 µM | [18] > 100 µM | [19] > 100 µM | [20] > 100 µM | [21] > 100 µM | [22] > 100 µM | [23] > 100 µM | [25] > 100 µM | [26] > 100 µM | [27] > 100 µM | [28] 29 µM | [29] > 100 µM | [30] > 100 µM | [31] > 100 µM | [32] > 100 µM | [33] 2.12 µM | [34] > 100 µM | [35] > 100 µM | [36] > 100 µM | [37] 57.5 µM | [38] 54.2 µM | [39] > 100 µM | [40] 34.8 µM | [41] 63.7 µM | [42] > 100 µM | [43] > 100 µM | [45] > 100 µM | [46] > 100 µM | [47] > 100 µM | [48] > 100 µM | [49] > 100 µM | [50] > 100 µM | [51] > 100 µM | [52] 18.2 µM | [53] > 100 µM | [54] > 100 µM | [55] 65.9 µM | [56] 45.7 µM | [57] 84.1 µM | [58] > 100 µM | [59] 25.2 µM

COc1cc([C@@H]2c3cc4c(cc3[C@@H](NC(=O)c3ccc(OC(C)=O)cc3)C3COC(=O)[C@@H]32)OCO4)cc(OC)c1O (some centres undefined)
inactive: [1] 1.22 µM | [2] 2.22 µM | [5] 1.92 µM | [7] 10.2 µM | [8] 2.96 µM | [9] 1.2 µM | [11] 4.18 µM | [12] 3.27 µM | [13] 2.61 µM | [16] > 100 µM | [18] 1.34 µM | [19] 5.01 µM | [21] 2.17 µM | [22] 2.13 µM | [23] 2.66 µM | [24] 1.39 µM | [25] 9.62 µM | [26] 2.56 µM | [27] 8.71 µM | [29] 2.43 µM | [33] 1.73 µM | [34] 4.84 µM | [35] 39.9 µM | [36] 4.36 µM | [37] 2.48 µM | [38] 1.32 µM | [39] 11.4 µM | [40] 1.76 µM | [41] 2.01 µM | [42] 2.24 µM | [44] 3.48 µM | [45] 5.57 µM | [46] 1.99 µM | [47] 2.47 µM | [49] 2.16 µM | [50] 1.48 µM | [51] 19.8 µM | [54] 10.7 µM | [56] 8.32 µM | [58] 14.3 µM
9.95 µM: [14]
active: [3] 0.275 µM | [4] 0.689 µM | [6] 0.213 µM | [10] 0.359 µM | [15] 0.153 µM | [17] 0.714 µM | [20] 0.258 µM | [28] 0.0298 µM | [30] 0.798 µM | [31] 0.9 µM | [32] 0.03 µM | [43] 0.406 µM | [48] 1 µM | [53] 0.729 µM | [55] 0.308 µM | [57] 0.547 µM | [59] 0.813 µM

C/C(CN1C(=O)c2ccccc2C1=O)=N\NS(=O)(=O)c1cccc([N+](=O)[O-])c1
> 100 µM: [14]
inactive: [1] > 100 µM | [2] > 100 µM | [3] > 100 µM | [4] > 100 µM | [5] > 100 µM | [6] > 100 µM | [7] > 100 µM | [8] > 100 µM | [10] > 100 µM | [11] > 100 µM | [12] > 100 µM | [13] > 100 µM | [15] > 100 µM | [16] > 100 µM | [17] > 100 µM | [19] > 100 µM | [20] > 100 µM | [21] > 100 µM | [22] > 100 µM | [23] > 100 µM | [25] > 100 µM | [26] > 100 µM | [27] > 100 µM | [28] > 100 µM | [29] > 100 µM | [30] > 100 µM | [31] > 100 µM | [32] > 100 µM | [33] > 100 µM | [34] > 100 µM | [35] > 100 µM | [36] > 100 µM | [37] > 100 µM | [38] > 100 µM | [39] > 100 µM | [40] > 100 µM | [41] > 100 µM | [42] > 100 µM | [43] > 100 µM | [44] > 100 µM | [45] > 100 µM | [46] > 100 µM | [47] > 100 µM | [48] > 100 µM | [49] > 100 µM | [50] > 100 µM | [51] > 100 µM | [53] > 100 µM | [54] > 100 µM | [55] > 100 µM | [56] > 100 µM | [57] > 100 µM | [58] > 100 µM | [59] > 100 µM
